Source: patent US20230089867A1, “CYCLIC PENTAMER COMPOUNDS AS PROPROTEIN CONVERTASE SUBTILISIN/KEXIN TYPE 9 (PCSK9) INHIBITORS FOR THE TREATMENT OF METABOLIC DISORDER” (Novartis AG, priority 2018, published 2023)

Molecular target: human PCSK9 (Homo sapiens, UniProt Q8NBP7)
Assay: PCSK9 ligand binding TR-FRET assay (interference with binding of human PCSK9 to human LDLR)
Settings: for Max % inhibition: PCSK9 FRET assay, efficacy (Amax), 100% = 1 uM unlabeled human PCSK9, 0% = DMSO; for IC50: TR-FRET, human PCSK9 Alexa Fluor 647 / human LDLR extracellular domain-Europium Kryptate, read-out: PCSK9 FRET Assay IC50
Description: The PCSK9 binding of the compounds of the disclosure were measured using a time resolved fluorescence resonance energy transfer (TR-FRET) assay. This time resolved fluorescence resonance energy transfer (TR-FRET) assay measures the ability of a compound of the present disclosure to interfere with the binding of human PCSK9 to human LDLR, providing measures of both potency (IC50) and efficacy (Amax).
These solutions were pipetted into columns 1 and 11 of the compound plate. Threefold serial dilutions were generated in columns 2-10 and 12-20 of the compound plate by transferring 10 uL into 20 uL of DMSO. Columns 21 and 22 of the compound plate were negative controls containing DMSO alone.
An intermediate plate was generated in a Greiner V bottom plate by transferring 8 uL from each well of the master plate into a corresponding well containing 92 uL of assay buffer and mixing thoroughly.
A Proxi plate-low volume assay plate was used for the assay. […] For the positive control wells in columns 23 and 24 of the plate, 5 uL of unlabeled human PCSK9 was added at 4 uM in assay buffer containing 8% DMSO. Following a 30 minute incubation, 5 uL of 4 nM Human LDLR extracellular domain-Europium Kryptate was added and the mixture was incubated for an additional 2 hours.
The FRET ratio (FRET/Europium) was used for calculations.
Data is expressed as percent inhibition: (value−0%)/(100%−0%).

Chain of human PCSK9 (Q8NBP7 153-692): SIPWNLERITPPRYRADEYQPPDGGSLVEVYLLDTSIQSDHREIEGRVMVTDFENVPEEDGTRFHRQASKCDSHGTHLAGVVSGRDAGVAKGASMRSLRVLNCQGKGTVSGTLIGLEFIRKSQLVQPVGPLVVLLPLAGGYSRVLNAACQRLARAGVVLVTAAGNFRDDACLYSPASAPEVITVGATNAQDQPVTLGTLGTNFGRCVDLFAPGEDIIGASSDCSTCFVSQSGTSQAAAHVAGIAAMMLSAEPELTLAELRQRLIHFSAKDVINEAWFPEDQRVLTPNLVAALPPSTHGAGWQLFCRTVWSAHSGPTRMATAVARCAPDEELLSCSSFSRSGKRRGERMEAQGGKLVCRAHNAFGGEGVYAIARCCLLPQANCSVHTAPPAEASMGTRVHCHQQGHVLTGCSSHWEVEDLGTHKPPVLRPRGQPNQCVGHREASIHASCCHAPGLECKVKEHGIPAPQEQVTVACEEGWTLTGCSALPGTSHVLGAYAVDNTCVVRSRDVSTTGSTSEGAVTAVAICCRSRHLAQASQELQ
Chain of human PCSK9 (Q8NBP7 31-152 partner limits assumed): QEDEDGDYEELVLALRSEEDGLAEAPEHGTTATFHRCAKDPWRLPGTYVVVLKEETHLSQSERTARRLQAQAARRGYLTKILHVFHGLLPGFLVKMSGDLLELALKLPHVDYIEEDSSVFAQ

Row | Structure (SMILES) | Max % inhibition | IC50
1 | COC[C@@H]1NC(=O)[C@H](C)N(Cc2ccc(Cl)cc2Oc2ccc(-c3cnc(CN(C)C)n3C)cc2)C(=O)CCC(=O)N(C)[C@@H](C)CNC(=O)C[C@H](Cc2ccc(Cl)cc2)N(C)C1=O [Compound 195, (2S,5S,8S,13S)-1-(4-chloro-2-(4-(2-((dimethylamino)methyl)-1-methyl-1H-imidazol-5-yl)phenoxy)benzyl)-8-(4-chlorobenzyl)-5-(methoxymethyl)-2,7,13,14-tetramethyl-1,4,7,11,14-pentaazacyclooctadecane-3,6,10,15,18-pentaone] | 100.43% | 73.4 nM
2 | COC[C@@H]1NC(=O)[C@H](C)N(Cc2ccc(Cl)cc2Oc2ccc(-c3cnc(CN4CCC4)n3C)cc2)C(=O)C[C@@H](Cc2ccccc2)C(=O)N(C)[C@H]2CCCC[C@@H]2NC(=O)C[C@H](Cc2ccc(Cl)cc2)N(C)C1=O [Compound 16, (4S,7S,10S,14R,16aS,20aS)-11-(2-(4-(2-(azetidin-1-ylmethyl)-1-methyl-1H-imidazol-5-yl)phenoxy)-4-chlorobenzyl)-14-benzyl-4-(4-chlorobenzyl)-7-(methoxymethyl)-5,10,16-trimethylhexadecahydrobenzo[l][1,4,7,11,14]pentaazacyclooctadecine-2,6,9,12,15(3H)-pentaone] | 92.71% | 1.7 nM
3 | COC[C@@H]1NC(=O)[C@H](C)N(Cc2ccc(Cl)cc2Oc2ccc(-c3cnc(CN(C)C)n3C)cc2)C(=O)C[C@H](Cn2cccn2)C(=O)N(C)[C@H]2CCCC[C@@H]2NC(=O)C[C@H](Cc2ccc(Cl)cc2)N(C)C1=O [Compound 2, (4S,7S,10S,14R,16aS,20aS)-14-((1H-pyrazol-1-yl)methyl)-11-(4-chloro-2-(4-(2-((dimethylamino)methyl)-1-methyl-1H-imidazol-5-yl)phenoxy)benzyl)-4-(4-chlorobenzyl)-7-(methoxymethyl)-5,10,16-trimethylhexadecahydrobenzo[l][1,4,7,11,14]pentaazacyclooctadecine-2,6,9,12,15(3H)-pentaone] | 95.16% | 172 nM
4 | C[C@H]1CNC(=O)C[C@H](Cc2ccc(Cl)cc2)N(C)C(=O)[C@H](CO)NC(=O)[C@H](C)N(Cc2ccccc2OCC(=O)N2Cc3cccnc3C2)C(=O)C[C@@H](Cc2ccccc2)C(=O)N1C (stereo in doubt) [Compound 143, (2S,5S,8S,13S,16R)-16-benzyl-8-(4-chlorobenzyl)-5-(hydroxymethyl)-2,7,13,14-tetramethyl-1-(2-(2-oxo-2-(5H-pyrrolo[3,4-b]pyridin-6(7H)-yl)ethoxy)benzyl)-1,4,7,11,14-pentaazacyclooctadecane-3,6,10,15,18-pentaone] | 49.36% | 774 nM
5 | COC[C@@H]1NC(=O)[C@H](C)N(Cc2ccc(Cl)cc2Oc2ccc(-c3cnc(CN4CC5(COC5)C4)n3C)cc2)C(=O)C[C@@H](Cc2ccccc2)C(=O)N(C)[C@H]2CCCC[C@@H]2NC(=O)C[C@H](Cc2ccc(Cl)cc2)N(C)C1=O [Compound 157, (4S,7S,10S,14R,16aS,20aS)-11-(2-(4-(2-(2-oxa-6-azaspiro[3.3]heptan-6-ylmethyl)-1-methyl-1H-imidazol-5-yl)phenoxy)-4-chlorobenzyl)-14-benzyl-4-(4-chlorobenzyl)-7-(methoxymethyl)-5,10,16-trimethylhexadecahydrobenzo[l][1,4,7,11,14]pentaazacyclooctadecine-2,6,9,12,15(3H)-pentaone] | 89.28% | 1.8 nM
6 | COC[C@@H]1NC(=O)[C@H](C)N(Cc2ccc(Cl)cc2Oc2ccc(-c3cnc(CN4CCCC4)n3C)cc2)C(=O)C[C@@H](Cc2ccccc2)C(=O)N(C)C2CCOCC2NC(=O)C[C@H](Cc2ccc(Cl)cc2)N(C)C1=O (single isomer, unassigned) [Compound 274] | 93.20% | 1.4 nM
7 | COC[C@@H]1NC(=O)[C@@H](COC)N(Cc2ccc(Cl)cc2Oc2ccc(-c3cnc(CN(C)C)n3C)cc2)C(=O)C[C@@H](Cc2ccccc2)C(=O)N(C)[C@H]2CCCC[C@@H]2NC(=O)C[C@H](Cc2ccc(Cl)cc2)N(C)C1=O [Compound 8, (4S,7S,10R,14R,16aS,20aS)-14-benzyl-11-(4-chloro-2-(4-(2-((dimethylamino)methyl)-1-methyl-1H-imidazol-5-yl)phenoxy)benzyl)-4-(4-chlorobenzyl)-7,10-bis(methoxymethyl)-5,16-dimethylhexadecahydrobenzo[l][1,4,7,11,14]pentaazacyclooctadecine-2,6,9,12,15(3H)-pentaone] | 101.12% | 8.9 nM
8 | COC[C@@H]1NC(=O)[C@H](C)N(Cc2ccc(Cl)cc2Oc2ccc(-n3cnc(C(=O)NCCO)c3C)cc2)C(=O)C[C@@H](Cc2ccccc2)C(=O)N(C)[C@@H](C)CNC(=O)C[C@H](Cc2ccc(Cl)cc2)N(C)C1=O [Compound 188, 1-(4-(2-(((2S,5S,8S,13S,16R)-16-benzyl-8-(4-chlorobenzyl)-5-(methoxymethyl)-2,7,13,14-tetramethyl-3,6,10,15,18-pentaoxo-1,4,7,11,14-pentaazacyclooctadecan-1-yl)methyl)-5-chlorophenoxy)phenyl)-N-(2-hydroxyethyl)-5-methyl-1H-imidazole-4-carboxamide] | 75.17% | 16.2 nM
9 | COC[C@@H]1NC(=O)[C@H](C)N(Cc2ccc(Cl)cc2Oc2ccc(-c3cnc(CN(C)C)n3C)cc2)C(=O)C[C@@H](Cc2ccccn2)C(=O)N(C)[C@@H](C)[C@H](C)NC(=O)C[C@H](Cc2ccc(Cl)cc2)N(C)C1=O [Compound 295, (2S,5S,8S,12S,13S,16R)-1-(4-chloro-2-(4-(2-((dimethylamino)methyl)-1-methyl-1H-imidazol-5-yl)phenoxy)benzyl)-8-(4-chlorobenzyl)-5-(methoxymethyl)-2,7,12,13,14-pentamethyl-16-(pyridin-2-ylmethyl)-1,4,7,11,14-pentaazacyclooctadecane-3,6,10,15,18-pentaone] | 101.64% | 1.8 nM
10 | C[C@H]1CNC(=O)C[C@H](Cc2ccc(Cl)cc2)N(C)C(=O)[C@H](CCF)NC(=O)[C@H](C)N(Cc2ccc(Cl)cc2Oc2ccc(-c3cnc(CN4CCCC4)n3C)cc2)C(=O)C[C@@H](Cc2ccccc2)C(=O)N1C [Compound 257, (2S,5S,8S,13S,16R)-16-benzyl-1-(4-chloro-2-(4-(1-methyl-2-(pyrrolidin-1-ylmethyl)-1H-imidazol-5-yl)phenoxy)benzyl)-8-(4-chlorobenzyl)-5-(2-fluoroethyl)-2,7,13,14-tetramethyl-1,4,7,11,14-pentaazacyclooctadecane-3,6,10,15,18-pentaone] | 50.23% | 21.3 nM
11 | COC[C@@H]1NC(=O)[C@H](CN2CCC2)N(Cc2ccc(Cl)cc2Oc2ccc(-c3cnc(CN(C)C)n3C)cc2)C(=O)C[C@@H](Cc2ccccc2)C(=O)N(C)[C@@H](C)CNC(=O)C[C@H](Cc2ccc(Cl)cc2)N(C)C1=O [Compound 17, (2S,5S,8S,13S,16R)-2-(azetidin-1-ylmethyl)-16-benzyl-1-(4-chloro-2-(4-(2-((dimethylamino)methyl)-1-methyl-1H-imidazol-5-yl)phenoxy)benzyl)-8-(4-chlorobenzyl)-5-(methoxymethyl)-7,13,14-trimethyl-1,4,7,11,14-pentaazacyclooctadecane-3,6,10,15,18-pentaone] | 81.08% | 61.2 nM
12 | COC[C@@H]1NC(=O)[C@H](C)N(Cc2ccc(Cl)cc2Oc2ccc(-c3c(C)nc(CN4CCCC4)n3C)cc2)C(=O)C[C@@H](Cc2ccccc2)C(=O)N(C)[C@@H](C)CNC(=O)C[C@H](Cc2ccc(Cl)cc2)N(C)C1=O [Compound 55, (2S,5S,8S,13S,16R)-16-benzyl-1-(4-chloro-2-(4-(1,4-dimethyl-2-(pyrrolidin-1-ylmethyl)-1H-imidazol-5-yl)phenoxy)benzyl)-8-(4-chlorobenzyl)-5-(methoxymethyl)-2,7,13,14-tetramethyl-1,4,7,11,14-pentaazacyclooctadecane-3,6,10,15,18-pentaone] | 58.77% | 9.3 nM
13 | COC[C@@H]1NC(=O)C(C)N(Cc2ccc(Cl)cc2Oc2ccc(-c3cnc(CN(C)C)n3C)cc2)C(=O)C[C@@H](Cc2ccccc2)C(=O)N(C)[C@H]2CCCC[C@@H]2NC(=O)C[C@H](Cc2ccc(Cl)cc2)N(C)C1=O (single isomer, unassigned) [Compound 58] | 103.43% | 9.3 nM
14 | COC[C@@H]1NC(=O)[C@H](CCCN(C)C)N(Cc2ccc(Cl)cc2Oc2ccc(-c3cnc(CN4CCCC4)n3C)cc2)C(=O)C[C@@H](Cc2ccccc2)C(=O)N(C)[C@H]2CCCC[C@@H]2NC(=O)C[C@H](Cc2ccc(Cl)cc2)N(C)C1=O [Compound 285, (4S,7S,10S,14R,16aS,20aS)-14-benzyl-11-(4-chloro-2-(4-(1-methyl-2-(pyrrolidin-1-ylmethyl)-1H-imidazol-5-yl)phenoxy)benzyl)-4-(4-chlorobenzyl)-10-(3-(dimethylamino)propyl)-7-(methoxymethyl)-5,16-dimethylhexadecahydrobenzo[l][1,4,7,11,14]pentaazacyclooctadecine-2,6,9,12,15(3H)-pentaone] | 90.24% | 2.1 nM
